Data set [1] has as its system AR target genes TMPRSS2, FKBP5, PSA. Kind of data set: RT-qPCR of AR target genes in VCaP cells. The note with it: 3 µM, 24 h, 1 nM R1881. Background: Real-time PCR tracks product formation cycle by cycle.
Method: (§1) LNCaP and VCaP cells were seeded in 6-well plates (10^6 and 2 × 10^6 cells per well, respectively) and, 48 h later, complete medium was replaced by charcoal-stripped medium with 5% FBS. Cells were then treated for 24 h with the tested compounds, and RNA extraction was performed using the Quick RNA Miniprep kit (Zymo-Research, Irvine, CA, USA), according to the manufacturer’s protocol. Reverse transcription was performed with 0.5 µg total RNA using the SuperScript III reverse transcriptase kit (ThermoFisher, Waltham, MA, USA), according to the manufacturer’s protocol, in a final volume of 20 µL. The levels of genes transcripts were measured by real time PCR using a LightCycler 480 system (Roche Life Science, Penzberg, Germany) in the presence of SYBRGreen (SYBR® Premix Ex Taq^tm) and the following primers: FKBP5, sense 5′-[sequence]-3′; antisense 5′-[sequence]-3′; PSA, sense 5′-[sequence]-3′; antisense 5′-[sequence]-3′; TMPRSS2, sense 5′-[sequence]-3′, antisense 5′-[sequence]-3′; GR, sense 5′-[sequence]-3′, antisense 5′-[sequence]-3′; HPRT, sense 5′-[sequence]-3′; antisense 5′-[sequence]-3′; GAPDH, sense 5′-[sequence]-3′; antisense 5′-[sequence]-3′. Expression levels were evaluated with the ΔΔCt method and were normalized to GAPDH. Results are expressed as mRNA expression, relative to control (untreated cells), and are the mean ± SEM of 3 independent experiments.
For another data set, the target named is T1, full-length AR (Homo sapiens, UniProt P10275).
T1 sequence (P10275 1-920): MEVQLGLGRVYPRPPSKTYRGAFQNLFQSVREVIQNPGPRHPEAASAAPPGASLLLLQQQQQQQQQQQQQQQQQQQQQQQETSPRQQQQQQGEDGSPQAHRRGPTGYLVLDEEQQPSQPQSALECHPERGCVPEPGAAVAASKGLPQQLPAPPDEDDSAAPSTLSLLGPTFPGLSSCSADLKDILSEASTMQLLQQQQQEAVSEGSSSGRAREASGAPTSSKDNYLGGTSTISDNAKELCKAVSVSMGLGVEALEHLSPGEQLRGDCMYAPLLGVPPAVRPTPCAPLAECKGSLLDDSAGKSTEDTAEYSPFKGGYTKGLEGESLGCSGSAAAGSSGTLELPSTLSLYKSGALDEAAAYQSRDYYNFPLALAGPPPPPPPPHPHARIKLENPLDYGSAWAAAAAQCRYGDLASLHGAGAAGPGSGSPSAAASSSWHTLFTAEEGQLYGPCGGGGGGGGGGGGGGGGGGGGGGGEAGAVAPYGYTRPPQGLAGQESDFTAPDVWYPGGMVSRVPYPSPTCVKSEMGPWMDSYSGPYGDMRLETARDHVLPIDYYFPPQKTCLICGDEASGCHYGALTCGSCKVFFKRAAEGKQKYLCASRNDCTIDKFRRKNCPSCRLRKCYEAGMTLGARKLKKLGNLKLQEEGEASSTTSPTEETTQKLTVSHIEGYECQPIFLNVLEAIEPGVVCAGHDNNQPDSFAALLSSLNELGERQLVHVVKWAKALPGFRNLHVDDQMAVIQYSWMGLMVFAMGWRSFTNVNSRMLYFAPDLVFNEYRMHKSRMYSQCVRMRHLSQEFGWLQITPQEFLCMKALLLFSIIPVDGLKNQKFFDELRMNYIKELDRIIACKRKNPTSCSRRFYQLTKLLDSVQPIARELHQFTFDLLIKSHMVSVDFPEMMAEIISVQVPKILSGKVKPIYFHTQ
Kind of data set: Transactivation assay in DU145 cells transiently overexpressing full-length AR. The format is cell-based. The conditions noted are these: 1 nM R1881. The text has this: transactivation assays as in Fig. 3.
performed in quadruplicate.
[Harmol Hydrochloride] (M)

The test system of data set [2] is AR target genes TMPRSS2, FKBP5, PSA. Kind of data set: RT-qPCR of AR target genes in LNCaP cells. The note with it: 3 µM, 24 h, 1 nM R1881.
Method: as §1
Data set [3] deals with GR. Kind of data set: GR expression (RT-qPCR and Western blot) in VCaP cells. The note with it: 3 µM, 24 h, 1 nM R1881.
Method: (§2) LNCaP and VCaP cells were seeded in 6-well plates (10^6 and 2 × 10^6 cells per well, respectively) and, 48 h later, complete medium was replaced by charcoal-stripped medium with 5% FBS. Cells were then treated for 24 h with the tested compounds, and RNA extraction was performed using the Quick RNA Miniprep kit (Zymo-Research, Irvine, CA, USA), according to the manufacturer’s protocol. Reverse transcription was performed with 0.5 µg total RNA using the SuperScript III reverse transcriptase kit (ThermoFisher, Waltham, MA, USA), according to the manufacturer’s protocol, in a final volume of 20 µL. The levels of genes transcripts were measured by real time PCR using a LightCycler 480 system (Roche Life Science, Penzberg, Germany) in the presence of SYBRGreen (SYBR® Premix Ex Taq^tm) and the following primers: FKBP5, sense 5′-[sequence]-3′; antisense 5′-[sequence]-3′; PSA, sense 5′-[sequence]-3′; antisense 5′-[sequence]-3′; TMPRSS2, sense 5′-[sequence]-3′, antisense 5′-[sequence]-3′; GR, sense 5′-[sequence]-3′, antisense 5′-[sequence]-3′; HPRT, sense 5′-[sequence]-3′; antisense 5′-[sequence]-3′; GAPDH, sense 5′-[sequence]-3′; antisense 5′-[sequence]-3′. Expression levels were evaluated with the ΔΔCt method and were normalized to GAPDH. Results are expressed as mRNA expression, relative to control (untreated cells), and are the mean ± SEM of 3 independent experiments. […]
Data set [4] deals with T2, full-length wild-type AR (hAR) (Homo sapiens, UniProt P10275).
T2 sequence (P10275 1-920): T1 sequence (P10275 1-920)
Kind of data set: Transactivation (luciferase) assay in U2OS-hAR-ARE-Luc reporter cells, screen and validation. It counts as cell-based. The note with it: for Results of 1st screen on AR: 0.3, 1, 3, 10 µM, 16 h, hit = AR transcriptional activity changed by more than 50% dose-dependently, <20% effect in control cells. Here is the method: U2OS-hAR-ARE(Rad9)-Luc and U2OS-hARv7-ARE(PB)-Luc were then used to screen the Prestwick phytochemical library®, containing 320 natural compounds, at four concentrations (0.3, 1, 3, 10 µM) in duplicate.

The subject of the next data set is VCaP cells. Kind of data set: Spheroid growth (CellTiter-Glo), VCaP. The conditions noted are these: 7 days, 1 nM R1881. (In ATP-based viability assays light output follows the ATP content of the culture.)
The target in data set [5] is T3, pregnane X receptor (PXR) (Homo sapiens, UniProt O75469).
T3 sequence (O75469 146-433 limits assumed): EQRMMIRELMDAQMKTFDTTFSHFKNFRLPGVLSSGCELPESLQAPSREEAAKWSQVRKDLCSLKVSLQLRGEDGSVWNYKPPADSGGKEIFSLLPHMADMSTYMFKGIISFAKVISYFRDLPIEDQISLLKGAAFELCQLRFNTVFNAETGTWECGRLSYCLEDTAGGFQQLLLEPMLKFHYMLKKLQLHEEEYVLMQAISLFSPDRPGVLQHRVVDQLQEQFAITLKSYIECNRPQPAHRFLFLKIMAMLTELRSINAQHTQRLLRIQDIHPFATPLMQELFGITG
The conditions noted are these: 16 h. From the text: HG5LN MR and HG5LN PXR luciferase reporter cell lines were obtained by stable expression of individual ligand binding domains fused to GAL4 DNA binding domain in HG5LN (HeLa GAL4REx5-luciferase) cells, as previously described. HELN PR cells were obtained by stably expressing PR with the ERα DNA binding domain in HELN (HeLa ERE-luciferase) cells and HMLN GR cells were obtained by stable co-transfection of HeLa cells with a plasmid encoding for a glucocorticoid responsive gene (MMTV-Luc-SV-Neo) and a glucocorticoid receptor expressing plasmid, as previously described.
Agonistic activities were evaluated in HMLN GR, HELN PR, HG5LN MR, and HG5LN PXR cells, using dexamethasone 100 nM, R5020 100 nM, aldosterone 100 nM, and SR12813 3 μM as a positive control, respectively. […] RU486 was used as a control antagonist for GR and PR, and spironolactone for MR.
HMLN glucocorticoid receptor (GR), HG5LN mineralocorticoid receptor (MR), HELN progesterone receptor (PR) and HG5LN PXR cells were used to evaluate the antagonistic effect of the tested compounds on (A) the glucocorticoid receptor (GR), (B) the mineralocorticoid receptor (MR), (C) the progesterone receptor (PR) and (D) the agonistic activity towards the pregnane X receptor (PXR). […]

For data set [6], the system named is GR. Kind of data set: GR expression (RT-qPCR and Western blot) in LNCaP cells. The conditions noted are these: 3 µM, 24 h, 1 nM R1881.
Method: as §2
Data set [7] has as its system U2OS-ARE-Luc control cells. Kind of data set: Luciferase activity in U2OS-ARE-Luc control cells. The conditions noted are these: validation, up to 3 µM, 16 h.
The subject of a further data set is DU145 cells. Kind of data set: Spheroid growth (CellTiter-Glo), DU145. It counts as cell-based, human. The conditions noted are these: 7 days, AR negative cells.
A further data set deals with PC3 cells. Kind of data set: Spheroid growth (CellTiter-Glo), PC3. The format is cell-based, human. The note with it: 7 days, AR negative cells.
Setting [8] is: listed as Harmol hydrochloride monohydrate.

This note sets out measurements from PMC7349874, “High Content Screening Using New U2OS Reporter Cell Models Identifies Harmol Hydrochloride as a Selective and Competitive Antagonist of the Androgen Receptor” (Cells, 2020).

Where a name gives a salt, the structure may show the parent alone.

For the compound `Cc1nccc2c1[nH]c1cc(O)ccc12` [harmol hydrochloride, Harmol hydrochloride monohydrate], the “Expression of the AR non-target gene HPRT” value in data set [1] and in data set [2] was “unaffected” throughout. For the same compound, the “R1881-mediated expression of AR target genes TMPRSS2, FKBP5, PSA” value in [1] and in data set [2] was “significant decrease” throughout. Besides, the “Inhibition of AR transactivation” value at full-length AR is “significant inhibition of AR transactivation”. Besides, the “Expression of GR at the mRNA and protein levels” value in the data set with GR [3] and in the data set with GR [6] was “neither harmol nor enzalutamide treatment could significantly alter the expression of GR” throughout. In data set [4] (1 nM versus 100 nM R1881), the “Nature of AR inhibition (competitive or non-competitive)” value is listed as “competitive antagonism”. For the same compound, the “Results of 1st screen on AR” value in data set [4] (setting [8]) is given as “Inhibition”; in data set [4] (listed as harmol), “active inhibitors of AR transcriptional activity”. Besides, the results for the “Results of confirmatory screen (validation of AR inhibition)” value in [4] (setting [8]) and in data set [4] (listed as harmol) were “Confirmed” and “could impair the transcriptional activity of AR”, respectively. Further, in the data set with VCaP cells, the “Growth of VCaP spheroids” value was “A similar effect was observed”. In addition, in [5], the “Activity towards PXR (agonistic)” value is recorded as “did not show any significant activity”. Also, in data set [7], the “Effect on luciferase activity in control cells” value is “no effect”. The “Growth of DU145 spheroids” value in the data set on DU145 cells was “no effect”. The “Growth of PC3 spheroids” value in the data set with PC3 cells is “no effect”.
